Measurements taken from patent US20220089592A1, “IMIDAZO[1,2-A]PYRIDINYL DERIVATIVES AS IRAK4 INHIBITORS” (priority 2019, published 2022).
Counter-ions that a name gives are not always drawn.

What was measured:
IRAK4 [1] = molecular target: T1, IRAK4 (Homo sapiens, UniProt Q9NWZ3); experiment: 2-hour 10 μM ATP Biochemical Assay (MesoScale Detection format; IRAK4 phosphorylation of biotin labeled IRAK1 activation loop peptide); settings: IRAK4 MSD BIOCHEMICAL (10 μM ATP) IC50 (μM), 1 nM IRAK4, 2 hours
T1 sequence (Q9NWZ3 1-460): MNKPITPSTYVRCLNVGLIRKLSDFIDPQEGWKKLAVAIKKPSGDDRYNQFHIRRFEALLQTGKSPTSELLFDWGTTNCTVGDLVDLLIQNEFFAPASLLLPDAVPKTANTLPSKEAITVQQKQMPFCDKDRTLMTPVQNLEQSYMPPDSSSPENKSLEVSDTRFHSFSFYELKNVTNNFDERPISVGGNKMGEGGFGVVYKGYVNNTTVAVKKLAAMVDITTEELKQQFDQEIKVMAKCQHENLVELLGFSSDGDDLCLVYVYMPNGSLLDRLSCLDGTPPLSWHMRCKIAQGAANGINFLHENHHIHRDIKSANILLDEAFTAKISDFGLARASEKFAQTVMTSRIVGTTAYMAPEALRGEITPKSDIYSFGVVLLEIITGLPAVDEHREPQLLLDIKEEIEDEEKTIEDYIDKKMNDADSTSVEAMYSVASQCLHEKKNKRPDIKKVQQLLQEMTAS
Procedure, shortened: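 Kinase reaction run 2 h at 10 μM ATP with biotinylated IRAK1 activation-loop peptide, quenched with EDTA. Phospho-peptide captured on streptavidin MSD plates and detected with anti-phosphothreonine rabbit antibody plus Sulfo-Tag anti-rabbit electrochemiluminescence.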

IRAK4 [2] = molecular target: T1, IRAK4; experiment: 2-hour 1 mM ATP IRAK4 Biochemical assay (as above, but with 100 pM IRAK4 and 1 mM ATP); settings: IRAK4 MSD BIOCHEMICAL (1 mM ATP) IC50 (μM), 100 pM IRAK4, 2 hours
Procedure, shortened: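 Run with 100 pM IRAK4 and 1 mM ATP for 2 hours, quenched with EDTA pH 8. Phosphorylated biotinylated peptide captured on streptavidin MSD plates and detected with anti-phosphothreonine antibody plus Sulfo-Tag secondary by electrochemiluminescence.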

Structure (SMILES) | IC50 (IRAK4 [1]) [µM] | IC50 (IRAK4 [2]) [µM]
CCOc1cc2nc(C3CN(CCOC)C3)cn2cc1NC(=O)c1cccc(C(F)F)n1 [Example 80, 6-(difluoromethyl)-N-(7-ethoxy-2-(1-(2-methoxyethyl)azetidin-3-yl)imidazo[1,2-a]pyridin-6-yl)picolinamide] | 0.002 | 0.005
CCOc1cc2nc(C3CCN(C(C)=O)C3)cn2cc1NC(=O)c1cccc(C(F)(F)F)n1 (stereo not shown) [Example 69, N-(2-(1-acetylpyrrolidin-3-yl)-7-ethoxyimidazo[1,2-a]pyridin-6-yl)-6-(trifluoromethyl)picolinamide] | 0.001 | 0.001
CCOc1cc2nc(C3(CO)CC3)cn2cc1NC(=O)c1cccc(C(F)F)n1 [Example 98, 6-(difluoromethyl)-N-(7-ethoxy-2-(1-(hydroxymethyl)cyclopropyl)imidazo[1,2-a]pyridin-6-yl)picolinamide] | 0.008 | 0.018
CCOc1cc2nc(COc3ccccn3)cn2cc1NC(=O)c1cccc(C(F)F)n1 [Example 86, 6-(difluoromethyl)-N-(7-ethoxy-2-((pyridin-2-yloxy)methyl)imidazo[1,2-a]pyridin-6-yl)picolinamide] | 0.006 | 0.008
CCOc1cc2nc(CCC(F)F)cn2cc1NC(=O)c1cccc(C(F)F)n1 [Example 110, 6-(difluoromethyl)-N-(2-(3,3-difluoropropyl)-7-ethoxyimidazo[1,2-a]pyridin-6-yl)picolinamide] | 0.001 | 0.001
O=C(Nc1cn2cc(C3CC3)nc2cc1OCC(F)(F)F)c1cccc(C(F)F)n1 [Example 26, N-(2-cyclopropyl-7-(2,2,2-trifluoroethoxy)imidazo[1,2-a]pyridin-6-yl)-6-(difluoromethyl)picolinamide] | 0.003 | 0.007
CCOc1cc2nc(C3CCSC3)cn2cc1NC(=O)c1cccc(C(F)F)n1 (stereo not shown) [Example 150, 6-(difluoromethyl)-N-(7-ethoxy-2-(tetrahydrothiophen-3-yl)imidazo[1,2-a]pyridin-6-yl)picolinamide] | 0.001 | 0.002
CCOc1cc2nc(CN3CCCC3=O)cn2cc1NC(=O)c1cccc(C(F)F)n1 [Example 85, 6-(difluoromethyl)-N-(7-ethoxy-2-((2-oxopyrrolidin-1-yl)methyl)imidazo[1,2-a]pyridin-6-yl)picolinamide] | 0.002 | 0.012

Other lines, results leading:

IC50 (IRAK4 [1]) [µM] | IC50 (IRAK4 [2]) [µM] | Structure (SMILES)
0.003 | 0.007 | CCOc1cc2nc(C3CCOCC3)cn2cc1NC(=O)c1cccc(C)c1F [Example 214, N-(7-ethoxy-2-(tetrahydro-2H-pyran-4-yl)imidazo[1,2-a]pyridin-6-yl)-2-fluoro-3-methylbenzamide]
0.002 | 0.008 | CCOc1cc2nc(C3CCOCC3)cn2cc1NC(=O)c1ccn(C2CCCC2)n1 [Example 208, 1-cyclopentyl-N-(7-ethoxy-2-(tetrahydro-2H-pyran-4-yl)imidazo[1,2-a]pyridin-6-yl)-1H-pyrazole-3-carboxamide]
0.003 | 0.014 | CCOc1nc2nc(C3CC3)cn2cc1NC(=O)c1cccc(C(F)F)n1 [Example 243, N-(2-cyclopropyl-7-ethoxyimidazo[1,2-a]pyrimidin-6-yl)-6-(difluoromethyl)picolinamide]
0.002 | 0.009 | CCOc1cc2nc(CC3CCOC3)cn2cc1NC(=O)c1cccc(OC)n1 (stereo not shown) [Example 134, N-(7-ethoxy-2-((tetrahydrofuran-3-yl)methyl)imidazo[1,2-a]pyridin-6-yl)-6-methoxypicolinamide]
0.002 | 0.004 | CCOc1cc2nc(C3CCOCC3)cn2cc1NC(=O)c1csc(CC)n1 [Example 202, N-(7-ethoxy-2-(tetrahydro-2H-pyran-4-yl)imidazo[1,2-a]pyridin-6-yl)-2-ethylthiazole-4-carboxamide]
0.033 | 0.148 | COc1nc(NC(=O)c2ccn(C)n2)cn2cc(C3CCOCC3)nc12 [Example 461, N-(8-methoxy-2-(tetrahydro-2H-pyran-4-yl)imidazo[1,2-a]pyrazin-6-yl)-1-methyl-1H-pyrazole-3-carboxamide Hydrochloride]
